Source: publication PMC3038857, “Using Nuclear Receptor Activity to Stratify Hepatocarcinogens” (PLoS ONE, 2011)

Key:
Human ER (ESR1) = Human ER (ESR1) (Homo sapiens, UniProt P03372); test: NVS_NR_hER: Human ER 3H-Estradiol (cell-free HTS); assay type: binding; conditions: scale not given, looks like -log10 of molar active concentration, 0 = no activity
Text: These are a collection of biochemical assays measuring binding constants and enzyme inhibition values. Chemicals were initially screened at a single concentration in duplicate wells at a concentration of 10 [drawing 63] M for cytochrome P-450 assays and 25 [drawing 64] M for all others. […] These assays were run by Caliper Life Sciences (Hanover, MD) under contract to EPA. Short assay descriptions are available at: http://www.caliperls.com/products/contract-research/in-vitro/.
Cell-free HTS Assays: A collection of biochemical assays measuring binding constants and enzyme inhibition values. […] These assays were run by Caliper Life Sciences (Hanover, MD) under contract to EPA. Short assay descriptions are available at http://www.caliperls.com/products/contract-research/in-vitro/. Values for all endpoints were imported into GeneData Screener (Basel, Switzerland) and normalised to solvent controls from the same plate as the tested compounds and expressed as percent of neutral control. Concentration-response curves were fit in GeneData Screener (Basel, Switzerland) Condeseo module using the Hill equation and AC50 values were determined. […] Detailed description of the methods, data and analysis methods for this dataset are described in a separate publication.

RXRa (RXRA) = molecular target: T1, RXRa (RXRA) (Homo sapiens, UniProt P19793); test: NCGC_RXRa_Agonist: GAL4 BLAM Reporter gene assay: RXRa; assay type: cell-based; conditions: agonist mode; scale not given, looks like -log10 of molar active concentration; 0 = no activity
T1 sequence (P19793 227-462 limits assumed): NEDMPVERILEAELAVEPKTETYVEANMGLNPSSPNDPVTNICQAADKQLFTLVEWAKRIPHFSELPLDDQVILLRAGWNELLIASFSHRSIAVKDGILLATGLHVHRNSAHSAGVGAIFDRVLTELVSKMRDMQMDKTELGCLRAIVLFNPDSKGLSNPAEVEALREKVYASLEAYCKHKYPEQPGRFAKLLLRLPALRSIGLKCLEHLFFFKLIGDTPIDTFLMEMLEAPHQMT
Procedure: These assays measure binding constants and enzyme inhibition values for nuclear receptors. The targets include [drawing 67] , [drawing 68] , [drawing 69] , [drawing 70] , [drawing 71] , [drawing 72] , [drawing 73] , [drawing 74] , [drawing 75] and [drawing 76] . Each of the nuclear receptor targets was measured in agonist mode. Assays were run at the NIH Chemical Genomics Center (Rockville, MD).
Cell-based HTS Assays: These assays measuring binding constants and enzyme inhibition values for nuclear receptors. The targets include AR, ER, FXR, LXR, PPARα, PPARδ, PPARγ, RXRα, RXRβ and PXR. Each of the nuclear receptor targets was measured in both agonist and antagonist mode, but the antagonist data is still undergoing analysis due to possible interference between cytotoxicity and assay activity, so antagonist mode data were not used in the present analysis. Assays were run at the NIH Chemical Genomics Center (Rockville, MD) as part of the Tox21 collaboration. […] The R^2 was required to be ≥0.5. Values where only the highest concentration exceeded 50% activity were excluded to eliminate weak or false positives. Detailed description of the methods, data and analysis methods for this dataset will be presented in a separate publication.

PXR (NR1I2) = molecular target: T2, PXR (NR1I2) (Homo sapiens, UniProt O75469); test: ATG_PXR_TRANS: Factorial reporter gene assay (HepG2); assay type: cell-based; design: endogenous in cells; host or cells: HepG2; conditions: HepG2; scale not given, looks like -log10 of molar active concentration; 0 = no activity
T2 sequence (O75469 1-434): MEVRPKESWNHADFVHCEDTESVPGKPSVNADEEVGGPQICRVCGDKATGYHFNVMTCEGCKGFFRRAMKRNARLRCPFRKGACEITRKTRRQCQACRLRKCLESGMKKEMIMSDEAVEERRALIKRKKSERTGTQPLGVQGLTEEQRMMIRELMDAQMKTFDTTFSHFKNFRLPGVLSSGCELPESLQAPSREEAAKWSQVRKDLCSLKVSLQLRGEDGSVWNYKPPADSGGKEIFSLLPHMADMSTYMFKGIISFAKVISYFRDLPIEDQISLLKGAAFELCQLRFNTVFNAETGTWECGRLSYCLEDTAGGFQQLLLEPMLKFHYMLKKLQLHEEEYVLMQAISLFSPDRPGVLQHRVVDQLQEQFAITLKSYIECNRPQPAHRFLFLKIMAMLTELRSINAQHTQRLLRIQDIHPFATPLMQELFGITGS
Method in brief: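 Seven concentrations per chemical, three-fold dilutions down from the MTC, were tested in HepG2 hepatoma cells. Those cells carried a multiple reporter transcription unit library, read either as cis transcription-factor-site reporters or as a trans mammalian one-hybrid panel for nuclear receptors.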

[1] = molecular target: T3, PPARA (peroxisome proliferator-activated receptor alpha) (Homo sapiens, UniProt Q07869); test: ATG_PPARa_TRANS: Factorial reporter gene assay (HepG2); assay type: cell-based; design: scale not given here; conditions: scale not given, looks like -log10 of molar active concentration, 0 = no activity
T3 construct: expressed in transfected cells; host or cells: HepG2
T3 sequence (Q07869 1-468): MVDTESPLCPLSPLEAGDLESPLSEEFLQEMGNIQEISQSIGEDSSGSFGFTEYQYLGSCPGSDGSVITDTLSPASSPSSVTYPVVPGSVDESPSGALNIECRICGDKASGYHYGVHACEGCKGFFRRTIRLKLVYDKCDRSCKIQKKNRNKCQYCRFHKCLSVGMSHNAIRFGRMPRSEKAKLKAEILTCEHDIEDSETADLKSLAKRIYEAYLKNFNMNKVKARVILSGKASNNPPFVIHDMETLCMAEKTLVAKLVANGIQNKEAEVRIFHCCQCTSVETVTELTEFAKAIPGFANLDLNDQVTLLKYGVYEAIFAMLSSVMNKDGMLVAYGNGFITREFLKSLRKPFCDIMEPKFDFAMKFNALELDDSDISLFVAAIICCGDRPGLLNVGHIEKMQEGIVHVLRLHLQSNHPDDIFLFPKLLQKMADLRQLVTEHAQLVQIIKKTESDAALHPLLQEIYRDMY
Procedure: A multiple reporter transcription unit (MRTU) library consisting of 48 transcription factor binding sites was transfected into the HepG2 human liver hepatoma cell line. In addition to the cis-acting reporter genes (CIS), a modification of the approach was used to generate a trans-system (TRANS) with a mammalian one-hybrid assay consisting of an additional 25 MRTU library reporting the activity of nuclear receptor super-family members. […] These assays were performed by Attagene Inc. (Morrisville NC) under contract to EPA.
In addition to the cis-acting reporter genes (CIS), a modification of the approach was used to generate a trans-system (TRANS) with a mammalian one-hybrid assay consisting of an additional 25 MRTU library reporting the activity of nuclear receptor super-family members. […] Chemicals were then tested in the CIS and TRANS assays at seven concentrations starting at the MTC and followed by three-fold serial dilutions. These assays were performed by Attagene Inc. (Morrisville NC) under contract to EPA. Detailed description of the methods, data and analysis methods for this dataset will be presented in a separate publication.

Rat Liver = conditions: rat chronic study, liver, any lesion; coded 6 / 0, code not explained here; ref ToxRefDB; cited from earlier work

Chain of Human ER (ESR1) (P03372 whole entry): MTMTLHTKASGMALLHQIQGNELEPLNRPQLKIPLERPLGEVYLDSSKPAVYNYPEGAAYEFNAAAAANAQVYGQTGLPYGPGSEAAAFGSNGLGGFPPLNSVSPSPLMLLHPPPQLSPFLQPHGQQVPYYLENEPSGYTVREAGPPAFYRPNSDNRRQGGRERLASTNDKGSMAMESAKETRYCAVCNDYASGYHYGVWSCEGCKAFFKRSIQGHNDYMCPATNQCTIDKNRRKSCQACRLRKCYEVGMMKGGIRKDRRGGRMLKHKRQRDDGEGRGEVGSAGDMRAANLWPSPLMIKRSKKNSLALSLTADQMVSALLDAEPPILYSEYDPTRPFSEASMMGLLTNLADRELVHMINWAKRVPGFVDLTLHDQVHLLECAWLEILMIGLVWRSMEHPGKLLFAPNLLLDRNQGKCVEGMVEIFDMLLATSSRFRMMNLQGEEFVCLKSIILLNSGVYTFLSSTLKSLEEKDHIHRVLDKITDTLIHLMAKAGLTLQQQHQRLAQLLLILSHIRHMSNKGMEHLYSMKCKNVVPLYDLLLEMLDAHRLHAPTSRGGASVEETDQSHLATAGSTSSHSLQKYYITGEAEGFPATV

Which NVS_NR_hER (Human ER (ESR1)) does the source give for `CC1=C(C(=O)Nc2ccccc2)SCCO1` [r53] here?
Its NVS_NR_hER is 0.

And the NCGC_RXRa_Agonist (RXRa (RXRA))?
The NCGC_RXRa_Agonist was 0.

And the ATG_PXR_TRANS (PXR (NR1I2))?
Its ATG_PXR_TRANS is 0.

What about the ATG_PPARa_TRANS [1] of the same molecule?
Its ATG_PPARa_TRANS is 0.

What about the CHR_Rat_Liver_1_AnyLesion (Rat Liver) of the same molecule?
The CHR_Rat_Liver_1_AnyLesion was 0.

With `CCOC(=O)C(Cl)Cc1cc(-n2nc(C)n(C(F)F)c2=O)c(F)cc1Cl` (stereo not drawn) [r54] as the molecule, how does the NVS_NR_hER (Human ER (ESR1)) read?
The NVS_NR_hER was 0.

What about the NCGC_RXRa_Agonist (RXRa (RXRA)) of the same molecule?
Its NCGC_RXRa_Agonist is 0.

And the ATG_PXR_TRANS (PXR (NR1I2))?
Its ATG_PXR_TRANS is 4.367.

What about the ATG_PPARa_TRANS [1] of the same molecule?
Its ATG_PPARa_TRANS is 0.

And the CHR_Rat_Liver_1_AnyLesion (Rat Liver)?
The CHR_Rat_Liver_1_AnyLesion was 6.

For `Nc1cnn(-c2ccccc2)c(=O)c1Cl` [r56], which NVS_NR_hER (Human ER (ESR1)) is on record?
Its NVS_NR_hER is 0.

And the NCGC_RXRa_Agonist (RXRa (RXRA))?
The NCGC_RXRa_Agonist was 0.

What about the ATG_PXR_TRANS (PXR (NR1I2)) of the same molecule?
The ATG_PXR_TRANS was 0.

What about the ATG_PPARa_TRANS [1] of the same molecule?
Its ATG_PPARa_TRANS is 0.

And the CHR_Rat_Liver_1_AnyLesion (Rat Liver)?
Its CHR_Rat_Liver_1_AnyLesion is 0.

Which results are given for `CC(C)OC(=O)Nc1cccc(Cl)c1` [r59]?
NVS_NR_hER (Human ER (ESR1)): 0; NCGC_RXRa_Agonist (RXRa (RXRA)): 0; ATG_PXR_TRANS (PXR (NR1I2)): 4.347; ATG_PPARa_TRANS [1]: 0; CHR_Rat_Liver_1_AnyLesion (Rat Liver): 6

Which results are given for `COc1nc(C)nc(NC(=O)NS(=O)(=O)c2ccccc2Cl)n1` [r62]?
NVS_NR_hER (Human ER (ESR1)): 0; NCGC_RXRa_Agonist (RXRa (RXRA)): 0; ATG_PXR_TRANS (PXR (NR1I2)): 0; ATG_PPARa_TRANS [1]: 0; CHR_Rat_Liver_1_AnyLesion (Rat Liver): 6

Which results are given for `COc1nc(C)nc(NC(=O)NS(=O)(=O)c2ccccc2Cl)n1` [r63]?
NVS_NR_hER (Human ER (ESR1)): 0; NCGC_RXRa_Agonist (RXRa (RXRA)): 0; ATG_PXR_TRANS (PXR (NR1I2)): 0; ATG_PPARa_TRANS [1]: 0; CHR_Rat_Liver_1_AnyLesion (Rat Liver): 6
